Laboratory results as given in the NIST ThermoML archive (doi:10.1016/j.jct.2008.01.017).

Assays:
[1] = 293.15 K, 101.33 kPa, Liquid
[2] = refractive index (Na D-line) (dimensionless); settings: 293.15 K; 101.33 kPa; Liquid; Standard Abbe refractometry
[3] = excess molar enthalpy (molar enthalpy of mixing); xn = mol fraction of the nth substance listed; settings: 101 kPa, Liquid, Flow calorimetry

CCCCCCCO [heptan-1-ol]
Settings	mass density [kg/m3]	refractive index
[1]	822.3	–
[2]	–	1.4245

CCCCCCCO [heptan-1-ol] + CC#N
[3]
Settings	excess molar enthalpy [kcal/mol]
298.15 K, x1 = 0.0529	0.141
298.15 K, x1 = 0.1128	0.261
298.15 K, x1 = 0.1738	0.365
298.15 K, x1 = 0.2352	0.435
298.15 K, x1 = 0.2962	0.485
298.15 K, x1 = 0.3561	0.516
298.15 K, x1 = 0.4143	0.53
298.15 K, x1 = 0.4701	0.532
298.15 K, x1 = 0.5231	0.523
298.15 K, x1 = 0.573	0.505
298.15 K, x1 = 0.6194	0.479
298.15 K, x1 = 0.6623	0.449
298.15 K, x1 = 0.7015	0.416
298.15 K, x1 = 0.7692	0.349
298.15 K, x1 = 0.8038	0.303
298.15 K, x1 = 0.8621	0.221
298.15 K, x1 = 0.9271	0.116
313.15 K, x1 = 0.0698	0.186
313.15 K, x1 = 0.1417	0.326
313.15 K, x1 = 0.2146	0.43
313.15 K, x1 = 0.2872	0.504
313.15 K, x1 = 0.3584	0.545
313.15 K, x1 = 0.427	0.56
313.15 K, x1 = 0.4923	0.561
313.15 K, x1 = 0.5533	0.548
313.15 K, x1 = 0.6096	0.52
313.15 K, x1 = 0.6608	0.481
313.15 K, x1 = 0.707	0.438
313.15 K, x1 = 0.7482	0.392
313.15 K, x1 = 0.7845	0.348
313.15 K, x1 = 0.8163	0.304
313.15 K, x1 = 0.8439	0.26
313.15 K, x1 = 0.8642	0.228
313.15 K, x1 = 0.9283	0.121
323.15 K, x1 = 0.0704	0.19
323.15 K, x1 = 0.1429	0.348
323.15 K, x1 = 0.2161	0.469
323.15 K, x1 = 0.2891	0.541
323.15 K, x1 = 0.3605	0.574
323.15 K, x1 = 0.4293	0.585
323.15 K, x1 = 0.4946	0.58
323.15 K, x1 = 0.5555	0.565
323.15 K, x1 = 0.6117	0.54
323.15 K, x1 = 0.6629	0.498
323.15 K, x1 = 0.7089	0.452
323.15 K, x1 = 0.7499	0.404
323.15 K, x1 = 0.786	0.359
323.15 K, x1 = 0.8177	0.315
323.15 K, x1 = 0.8451	0.273
323.15 K, x1 = 0.8642	0.242
323.15 K, x1 = 0.9283	0.133

CCCCCCCCO [octan-1-ol] + CC#N
[3]
Settings	excess molar enthalpy [kcal/mol]
298.15 K, x1 = 0.0476	0.161
298.15 K, x1 = 0.0971	0.282
298.15 K, x1 = 0.1479	0.375
298.15 K, x1 = 0.1998	0.449
298.15 K, x1 = 0.2521	0.502
298.15 K, x1 = 0.3044	0.541
298.15 K, x1 = 0.3562	0.566
298.15 K, x1 = 0.407	0.58
298.15 K, x1 = 0.471	0.583
298.15 K, x1 = 0.5316	0.565
298.15 K, x1 = 0.5882	0.539
298.15 K, x1 = 0.6879	0.459
298.15 K, x1 = 0.7685	0.369
298.15 K, x1 = 0.802	0.328
298.15 K, x1 = 0.8567	0.245
298.15 K, x1 = 0.8975	0.176
298.15 K, x1 = 0.9375	0.117
313.15 K, x1 = 0.063	0.205
313.15 K, x1 = 0.1288	0.361
313.15 K, x1 = 0.1966	0.487
313.15 K, x1 = 0.2652	0.568
313.15 K, x1 = 0.3335	0.614
313.15 K, x1 = 0.4003	0.635
313.15 K, x1 = 0.4647	0.635
313.15 K, x1 = 0.5259	0.62
313.15 K, x1 = 0.583	0.592
313.15 K, x1 = 0.6357	0.551
313.15 K, x1 = 0.6837	0.501
313.15 K, x1 = 0.7268	0.452
313.15 K, x1 = 0.7653	0.404
313.15 K, x1 = 0.7992	0.359
313.15 K, x1 = 0.8288	0.315
313.15 K, x1 = 0.8762	0.236
313.15 K, x1 = 0.9349	0.124
323.15 K, x1 = 0.0633	0.218
323.15 K, x1 = 0.1295	0.397
323.15 K, x1 = 0.1975	0.541
323.15 K, x1 = 0.2663	0.613
323.15 K, x1 = 0.3347	0.655
323.15 K, x1 = 0.4017	0.672
323.15 K, x1 = 0.4661	0.669
323.15 K, x1 = 0.5273	0.651
323.15 K, x1 = 0.5844	0.619
323.15 K, x1 = 0.637	0.575
323.15 K, x1 = 0.6849	0.529
323.15 K, x1 = 0.7279	0.478
323.15 K, x1 = 0.7663	0.428
323.15 K, x1 = 0.8001	0.383
323.15 K, x1 = 0.8296	0.335
323.15 K, x1 = 0.8768	0.248
323.15 K, x1 = 0.9352	0.131

CCCCCCCCO [octan-1-ol]
Settings	mass density [kg/m3]	refractive index
[1]	825.8	–
[2]	–	1.4293

CC#N [acetonitrile]
Settings	mass density [kg/m3]
[1], Vibrating tube method	784.6

Settings	refractive index
[2]	1.3441
